Assay results as given in patent US20230364273A1, “AGENT FOR DETECTING INTERACTION BETWEEN TISSUES AND ORGANS” (HAMAMATSU PHOTONICS K.K., priority 2020, published 2023).

Test system: mitochondrial complex I (MC-I)
Assay: PET measurement of the amount (SUV) of MC-I probe accumulated in each tissue and organ of type 2 diabetes model rats (Test Examples 1 and 2)
Format: in vivo
Details: brain, heart, brown adipocytes, pancreas, liver, kidneys; 5, 8, 16, 26 weeks of age; i.v. about 20 MBq; except brown adipocytes and kidneys at 5 weeks of age (FIG. 4)
Description: Male Zucker Leprfa/Leprfa rats (hereinafter also referred to as “fatty rats”) that develop pathological conditions similar to type 2 diabetes of human adults and male Zucker Leprfa/+ rats (hereinafter also referred to as “lean rats”) as controls thereof were purchased from Charles River Laboratories Japan, Inc., and used for PET measurement at 5, 8, 16, and 26 weeks of age, and the amount of [^18F]BCPP-BF accumulated in each tissue and organ (brain, heart, kidneys, liver, and brown adipocytes (brown adipose tissue)) was measured.
The rats were anesthetized with isoflurane and fixed in a gantry of an animal PET camera (SHR-38000, manufactured by Hamamatsu Photonics K.K.). […]
After the completion of the PET measurement, a region of interest was set on the pancreas identified by an integrated PET image 40 to 60 minutes after the administration of D-[^11C]MT, and the amount of [^18F]BCPP-BF accumulated in the region of interest was calculated. Subsequently, the calculated accumulation amount was normalized by the amount of radioactivity administered and the body weight of each individual and defined as an amount (amount (SUV) of radioactivity accumulated) of [^18F]BCPP-BF accumulated in the pancreas. […] The amount (SUV) of radioactivity accumulated in the brain was calculated by excising the brains from the rats immediately after the PET measurement. […]

CC(C)(C)n1ncc(OCc2ccc(OCCCC[18F])nc2)c(Cl)c1=O [[^18F]BCPP-BF]
accumulation amount (SUV) in each tissue and organ, fatty rats versus lean rats: significantly lower
